Data from patent EP0942911B1, “BENZOPYRANOPYRROLE AND BENZOPYRANOPYRIDINE ALPHA-1 ADRENERGIC COMPOUNDS” (Abbott Laboratories, priority 1996, dated 1998).
Structures can show the parent of a compound that is named as a salt. Where two headings read alike, the source gives them in different places.

Experiments:
Assay in all cases: biochemical
α-1a adrenoreceptor = molecular target: T1, α-1a adrenoreceptor (Bos taurus, UniProt P18130); format: binding, bovine; conditions: read-out: Radioligand Binding (Ki, nM) 1a (Bovine)
T1 sequence (P18130 1-466): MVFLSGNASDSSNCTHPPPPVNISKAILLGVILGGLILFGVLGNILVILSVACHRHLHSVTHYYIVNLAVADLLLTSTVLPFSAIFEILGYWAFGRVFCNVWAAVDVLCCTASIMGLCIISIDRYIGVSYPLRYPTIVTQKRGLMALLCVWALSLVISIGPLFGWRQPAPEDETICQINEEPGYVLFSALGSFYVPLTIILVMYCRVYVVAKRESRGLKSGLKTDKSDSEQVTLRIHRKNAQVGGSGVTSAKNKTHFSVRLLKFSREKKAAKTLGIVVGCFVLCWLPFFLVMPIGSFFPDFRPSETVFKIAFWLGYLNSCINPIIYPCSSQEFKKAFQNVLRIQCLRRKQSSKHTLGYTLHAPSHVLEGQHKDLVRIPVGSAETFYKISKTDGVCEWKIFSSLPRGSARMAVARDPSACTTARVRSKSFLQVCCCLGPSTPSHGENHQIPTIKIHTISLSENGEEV
How it was run: (§1)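 Radioactivity counted by liquid scintillation after radioligand binding to membranes. Receptors: cloned α-1a, α-1b, α-1d stably expressed in LTK mouse fibroblasts (G418 selection, SV40 early promoter); rat submaxillary gland membranes for pharmacologically defined α-1A.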

α-1b adrenoreceptor = molecular target: T2, α-1b adrenoreceptor (Mesocricetus auratus, UniProt P18841); format: binding, hamster; conditions: read-out: Radioligand Binding (Ki, nM) 1b (Hamster)
T2 sequence (P18841 1-515): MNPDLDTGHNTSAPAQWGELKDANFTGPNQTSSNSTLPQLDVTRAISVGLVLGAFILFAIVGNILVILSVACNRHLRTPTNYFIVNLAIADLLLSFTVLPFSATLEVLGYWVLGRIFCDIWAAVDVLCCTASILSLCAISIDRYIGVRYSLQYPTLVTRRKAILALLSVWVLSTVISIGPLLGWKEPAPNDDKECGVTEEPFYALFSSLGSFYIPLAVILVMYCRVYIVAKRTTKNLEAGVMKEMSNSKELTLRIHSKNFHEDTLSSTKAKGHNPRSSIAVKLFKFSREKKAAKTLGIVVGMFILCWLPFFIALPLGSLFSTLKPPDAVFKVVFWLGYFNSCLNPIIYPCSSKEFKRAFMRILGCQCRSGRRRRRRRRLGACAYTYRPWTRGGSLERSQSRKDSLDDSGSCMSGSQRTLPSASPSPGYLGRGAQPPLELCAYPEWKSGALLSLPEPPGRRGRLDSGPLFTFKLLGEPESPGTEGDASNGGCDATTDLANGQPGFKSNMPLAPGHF
How it was run: as §1

α-1d adrenoreceptor = molecular target: T3, α-1d adrenoreceptor (Rattus norvegicus, UniProt P23944); format: binding; conditions: read-out: Radioligand Binding (Ki, nM) 1d (Rat)
T3 sequence (P23944 1-561): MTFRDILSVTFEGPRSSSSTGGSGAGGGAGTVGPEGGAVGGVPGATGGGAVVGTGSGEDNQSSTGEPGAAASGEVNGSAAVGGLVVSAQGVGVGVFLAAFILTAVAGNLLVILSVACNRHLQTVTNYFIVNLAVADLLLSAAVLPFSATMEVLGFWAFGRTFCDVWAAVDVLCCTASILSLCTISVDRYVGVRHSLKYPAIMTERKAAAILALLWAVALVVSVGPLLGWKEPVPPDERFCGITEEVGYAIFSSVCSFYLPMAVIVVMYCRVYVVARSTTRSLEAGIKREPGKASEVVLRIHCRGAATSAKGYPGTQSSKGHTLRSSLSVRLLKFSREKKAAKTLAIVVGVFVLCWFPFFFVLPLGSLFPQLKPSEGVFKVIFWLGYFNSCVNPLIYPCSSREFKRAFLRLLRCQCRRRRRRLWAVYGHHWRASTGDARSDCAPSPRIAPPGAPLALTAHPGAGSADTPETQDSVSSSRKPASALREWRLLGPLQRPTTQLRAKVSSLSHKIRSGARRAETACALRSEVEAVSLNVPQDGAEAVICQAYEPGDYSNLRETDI
How it was run: as §1

[1] = molecular target: T4, α-1A adrenoreceptor (rat submaxillary gland) (Rattus norvegicus, UniProt P43140); format: binding; conditions: read-out: Radioligand Binding (Ki, nM) 1A (Rat)
T4 sequence (P43140 1-466): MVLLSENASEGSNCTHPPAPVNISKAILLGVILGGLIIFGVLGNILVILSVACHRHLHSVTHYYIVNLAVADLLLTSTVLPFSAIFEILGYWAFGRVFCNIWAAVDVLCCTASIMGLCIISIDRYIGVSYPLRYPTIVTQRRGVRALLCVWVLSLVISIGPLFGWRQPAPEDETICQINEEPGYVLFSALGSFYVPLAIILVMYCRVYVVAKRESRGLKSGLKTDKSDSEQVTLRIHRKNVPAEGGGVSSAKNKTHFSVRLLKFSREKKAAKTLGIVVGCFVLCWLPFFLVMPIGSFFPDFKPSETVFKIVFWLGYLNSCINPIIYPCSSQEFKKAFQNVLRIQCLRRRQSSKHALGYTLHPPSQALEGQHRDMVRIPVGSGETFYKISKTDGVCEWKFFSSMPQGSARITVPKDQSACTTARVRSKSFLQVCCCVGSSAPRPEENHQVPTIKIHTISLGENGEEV
How it was run: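 Membranes were prepared from rat submaxillary glands as the α-1A adrenoreceptor source. Competition binding followed Greengrass and Bremner, with bound radioligand measured by scintillation counting.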

[2] = [3H]-prazosin radioligand, cloned receptor in LTK cell membranes
[3] = [3H]-prazosin radioligand, rat submaxillary gland membranes

SMILES | Ki (α-1a adrenoreceptor; [2]) [nM] | Ki (α-1b adrenoreceptor; [2]) [nM] | Ki (α-1d adrenoreceptor; [2]) [nM] | Ki [1, 3] [nM] | Ki (α-1a adrenoreceptor) [nM] | Ki (α-1b adrenoreceptor) [nM] | Ki (α-1d adrenoreceptor) [nM] | Ki [1] [nM]
COc1cnc2sc3c(=O)n(CCCCN4CC[C@H]5c6c(OC)cccc6OC[C@@H]5C4)c(=O)[nH]c3c2n1 [Example 99, 3-[4-((4aS,10bR)-trans-10-Methoxy-1,3,4,4a,5,10b-hexahydro-2H-[1]-benzopyrano[3,4-c]pyrido-3-yl)butyl]-8-methoxy-pyrazino[2',3':4,5]thieno[3,2-d]pyrimidine-2,4(1H,3H)-dione hydrochloride] | 1.73 | 57.1 | 5.81 | 14.9 | – | – | – | –
COc1cccc2c1[C@@H]1CN(CCCCn3c(=O)[nH]c4c(sc5ncc(-c6ccsc6)nc54)c3=O)C[C@@H]1CO2 [Example 57, 3-[4-((3aR,9bR)-cis-9-Methoxy-1,2,3,3a,4,9b-hexahydro-[1]-benzopyrano[3,4-c]pyrrol-2-yl)butyl]-8-(3-thienyl)-pyrazino[2',3':4,5]thieno[3,2-d]pyrimidine-2,4(1H,3H)-dione dihydrochloride] | 0.078 | 19.3 | 0.507 | 0.682 | – | – | – | –
COc1cccc2c1[C@@H]1CN(CCCCn3c(=O)[nH]c4c(sc5ncc(-c6ccsc6)nc54)c3=O)C[C@H]1CO2 [Example 59, 3-[4-((3aS,9bR)-trans-9-Methoxy-1,2,3,3a,4,9b-hexahydro-[1]-benzopyrano[3,4-c]pyrrol-2-yl)butyl]-8-(3-thienyl)-pyrazino[2',3':4,5]thieno[3,2-d]pyrimidine-2,4(1H,3H)-dione dihydrochloride] | 0.049 | 6.74 | 0.257 | 0.166 | – | – | – | –
COc1cccc2c1[C@H]1CCN(CCCCn3c(=O)[nH]c4c(sc5ncc(Cl)nc54)c3=O)C[C@@H]1CO2 [Example 96, 3-[4-((4aR,10bS)-trans-10-Methoxy-1,3,4,4a,5,10b-hexahydro-2H-[1]-benzopyrano[3,4-c]pyrido-3-yl)butyl]-8-chloro-pyrazino[2',3':4,5]thieno[3,2-d]pyrimidine-2,4(1H,3H)-dione dihydrochloride] | 0.211 | 10.4 | 0.816 | 0.816 | – | – | – | –
COc1cccc2c1[C@@H]1CN(CCCCn3c(=O)[nH]c4c(sc5ccc(-c6cccnc6)nc54)c3=O)C[C@H]1CO2 [Example 58, 3-[4-((3aS,9bR)-trans-9-Methoxy-1,2,3,3a,4,9b-hexahydro-[1]-benzopyrano[3,4-c]pyrrol-2-yl)butyl]-8-(3-pyridyl)-pyrido[2',3':4,5]thieno[3,2-d]pyrimidine-2,4(1H,3H)-dione trihydrochloride] | 0.188 | 2.08 | 0.039 | 0.273 | – | – | – | –
COc1cccc2c1[C@H]1CN(CCCCn3c(=O)[nH]c4c(sc5cccnc54)c3=O)C[C@@H]1CO2 [Example 4, 3-[4-((3aR,9bS)-trans-9-Methoxy-1,2,3,3a,4,9b-hexahydro-[1]-benzopyrano[3,4-c]pyrrol-2-yl)butyl]-pyrido[2',3':4,5]thieno[3,2-d]pyrimidine-2,4(1H,3H)-dione hydrochloride] | 0.049 | 0.867 | 0.377 | 0.097 | – | – | – | –
COc1cccc2c1[C@H]1CN(CCCCn3c(=O)[nH]c4c(sc5ncc(-c6ccccc6)nc54)c3=O)C[C@@H]1CO2 [Example 9, 3-[4-((3aR,9bS)-trans-9-Methoxy-1,2,3,3a,4,9b-hexahydro-[1]-benzopyrano[3,4-c]pyrrol-2-yl)butyl]-8-phenyl-pyrazino[2',3':4,5]thieno[3,2-d]pyrimidine-2,4(1H,3H)-dione hydrochloride] | 0.325 | 17.8 | 1.55 | 2.27 | – | – | – | –
COc1cccc2c1[C@@H]1CN(CCCCCn3c(=O)[nH]c4c(sc5ccccc54)c3=O)C[C@H]1CO2 [Example 23, 3-[5-((3aS,9bR)-trans-9-Methoxy-1,2,3,3a,4,9b-hexahydro-[1]-benzopyrano[3,4-c]pyrrol-2-yl)pentyl]-[1]benzthieno[3,2-d]pyrimidine-2,4(1H,3H)-dione hydrochloride] | 0.046 | 0.973 | 0.639 | 0.743 | – | – | – | –
COc1cccc2c1[C@@H]1CN(CCCCn3c(=O)[nH]c4c(sc5ncc(-c6cccnc6)nc54)c3=O)C[C@@H]1CO2 [Example 61, 3-[4-((3aR,9bR)-cis-9-Methoxy-1,2,3,3a,4,9b-hexahydro-[1]-benzopyrano[3,4-c]pyrrol-2-yl)butyl]-8-(3-pyridyl)-pyrazino[2',3':4,5]thieno[3,2-d]pyrimidine-2,4(1H,3H)-dione dihydrochloride] | 0.15 | 8.85 | 0.336 | 0.152 | – | – | – | –
COc1ccc2c(c1)[C@@H]1CN(CCCCn3c(=O)[nH]c4c(sc5nccnc54)c3=O)C[C@@H]1CO2 (racemic) [Example 76, 3-[4-((±)-cis-8-Methoxy-1,2,3,3a,4,9b-hexahydro-[1]-benzopyrano[3,4-c]pyrrol-2-yl)butyl]-pyrazino[2',3':4,5]thieno[3,2-d]pyrimidine-2,4(1H,3H)-dione hydrochloride] | – | – | – | – | 6.21 | 78.6 | 12.9 | 11.7
COc1cc2[nH]c(=O)n(CCCCN3C[C@@H]4COc5cccc(OC)c5[C@@H]4C3)c(=O)c2cc1OC (racemic) [Example 79, 3-[4-((±)-cis-9-Methoxy-1,2,3,3a,4,9b-hexahydro-[1]-benzopyrano[3,4-c]pyrrol-2-yl)butyl]-6,7-dimethoxy-quinazoline-2,4(1H,3H)-dione hydrochloride] | – | – | – | – | 0.174 | 0.821 | 0.361 | 0.199
COc1cccc2c1[C@@H]1CN(CCCCn3c(=O)[nH]c4c(sc5nccnc54)c3=O)C[C@H]1CO2 [Example 14, 3-[4-((3aS,9bR)-trans-9-Methoxy-1,2,3,3a,4,9b-hexahydro-[1]-benzopyrano[3,4-c]pyrrol-2-yl)butyl]-pyrazino[2',3':4,5]thieno[3,2-d]pyrimidine-2,4(1H,3H)-dione dihydrochloride] | 0.038 | 1.37 | 0.145 | 0.105 | – | – | – | –
